# Test results reported in ChEMBL document CHEMBL5346956, “Opportunities and Challenges for Inhibitors Targeting Citrate Transport and Metabolism in Drug Discovery” (J Med Chem, 2023).
# Assays:
# [1] = molecular target: T1, Tricarboxylate transport protein, mitochondrial (Homo sapiens, UniProt P53007); test: Inhibition of SLC25A1 (unknown origin) at 1 uM relative to control
# Target sequence in this assay (P53007 14-311 limits assumed): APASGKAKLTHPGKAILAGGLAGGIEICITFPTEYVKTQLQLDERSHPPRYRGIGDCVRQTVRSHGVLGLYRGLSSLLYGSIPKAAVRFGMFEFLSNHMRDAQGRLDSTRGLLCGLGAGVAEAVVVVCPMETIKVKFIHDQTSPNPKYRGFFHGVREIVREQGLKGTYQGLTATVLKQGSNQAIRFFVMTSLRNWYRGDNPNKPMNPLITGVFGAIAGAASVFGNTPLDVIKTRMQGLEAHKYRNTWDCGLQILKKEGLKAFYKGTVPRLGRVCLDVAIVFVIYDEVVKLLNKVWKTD
# [2] = molecular target: T1, Tricarboxylate transport protein, mitochondrial; test: Inhibition of human SLC25A1 at 1 uM relative to control
# Target sequence in this assay (P53007 14-311 limits assumed): as above
# [3] = molecular target: T1, Tricarboxylate transport protein, mitochondrial; test: Binding affinity to human SLC25A1 assessed as inhibition constant
# Target sequence in this assay (P53007 whole entry): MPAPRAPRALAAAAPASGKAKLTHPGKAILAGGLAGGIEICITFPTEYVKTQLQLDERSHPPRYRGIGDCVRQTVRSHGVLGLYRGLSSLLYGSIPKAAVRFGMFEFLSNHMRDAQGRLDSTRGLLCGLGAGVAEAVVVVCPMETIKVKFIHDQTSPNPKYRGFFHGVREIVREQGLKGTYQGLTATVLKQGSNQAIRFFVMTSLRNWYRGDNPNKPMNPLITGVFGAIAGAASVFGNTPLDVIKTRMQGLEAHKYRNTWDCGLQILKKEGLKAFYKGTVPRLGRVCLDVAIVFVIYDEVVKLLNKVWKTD
# ATP-citrate synthase [4] = molecular target: T2, ATP-citrate synthase (Homo sapiens, UniProt P53396); test: Binding affinity to ACLY (unknown origin) assessed as inhibition constant
# T2 sequence (P53396 whole entry): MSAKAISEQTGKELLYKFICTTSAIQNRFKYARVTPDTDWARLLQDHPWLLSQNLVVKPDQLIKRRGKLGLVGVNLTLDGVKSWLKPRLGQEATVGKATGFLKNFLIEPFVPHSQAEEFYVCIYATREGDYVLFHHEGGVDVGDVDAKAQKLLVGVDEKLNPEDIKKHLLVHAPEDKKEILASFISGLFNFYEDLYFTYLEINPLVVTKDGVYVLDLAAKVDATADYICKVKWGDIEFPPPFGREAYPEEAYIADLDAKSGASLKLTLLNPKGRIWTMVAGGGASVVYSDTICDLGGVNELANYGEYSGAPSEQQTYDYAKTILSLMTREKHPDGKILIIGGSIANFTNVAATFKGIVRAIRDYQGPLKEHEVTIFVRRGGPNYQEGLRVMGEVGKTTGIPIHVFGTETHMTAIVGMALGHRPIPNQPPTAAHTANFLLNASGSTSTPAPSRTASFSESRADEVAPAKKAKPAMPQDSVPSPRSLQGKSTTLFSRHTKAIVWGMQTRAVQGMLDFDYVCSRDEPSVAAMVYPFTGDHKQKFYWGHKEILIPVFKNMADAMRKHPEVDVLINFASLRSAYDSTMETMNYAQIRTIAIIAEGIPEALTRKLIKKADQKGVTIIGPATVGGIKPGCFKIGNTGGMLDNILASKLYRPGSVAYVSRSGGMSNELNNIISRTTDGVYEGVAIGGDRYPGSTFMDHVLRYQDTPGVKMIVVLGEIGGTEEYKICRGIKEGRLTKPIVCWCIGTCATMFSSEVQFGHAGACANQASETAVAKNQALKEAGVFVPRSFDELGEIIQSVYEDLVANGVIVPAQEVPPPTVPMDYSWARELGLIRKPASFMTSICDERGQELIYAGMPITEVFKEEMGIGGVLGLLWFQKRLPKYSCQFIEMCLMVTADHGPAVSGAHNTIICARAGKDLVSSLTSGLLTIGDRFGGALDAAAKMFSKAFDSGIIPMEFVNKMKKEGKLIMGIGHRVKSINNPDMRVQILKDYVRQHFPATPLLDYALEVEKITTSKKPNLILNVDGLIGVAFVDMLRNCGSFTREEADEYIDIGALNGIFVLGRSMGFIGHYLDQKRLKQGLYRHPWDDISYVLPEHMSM
# ATP-citrate synthase [5] = molecular target: T2, ATP-citrate synthase
# ATP-citrate synthase [6] = molecular target: T2, ATP-citrate synthase; remark: listed apart in the source
# in vitro = conditions: human, liver microsomes
# [7] = Metabolic stability in rat liver microsomes assessed as half life; assay type: ADME, Microsome
# ATP-citrate synthase [8] = molecular target: T2, ATP-citrate synthase; remark: listed apart in the source
# HeLa = test: Antiproliferative activity against human HeLa cells assessed as inhibition of cell growth measured after 24 hrs; assay type: functional, cell-based
# [9] = molecular target: Na(+)/citrate cotransporter (Homo sapiens, UniProt Q86YT5); test: Inhibition of recombinant human SLC13A5 in HEK293T cells; assay type: cell-based
# [10] = molecular target: T3, Na(+)/dicarboxylate cotransporter 3 (Homo sapiens, UniProt Q8WWT9); test: Inhibition of human SLC13A3 in HepG2 cells by measuring […] uptake; assay type: cell-based
# T3 sequence (Q8WWT9 whole entry): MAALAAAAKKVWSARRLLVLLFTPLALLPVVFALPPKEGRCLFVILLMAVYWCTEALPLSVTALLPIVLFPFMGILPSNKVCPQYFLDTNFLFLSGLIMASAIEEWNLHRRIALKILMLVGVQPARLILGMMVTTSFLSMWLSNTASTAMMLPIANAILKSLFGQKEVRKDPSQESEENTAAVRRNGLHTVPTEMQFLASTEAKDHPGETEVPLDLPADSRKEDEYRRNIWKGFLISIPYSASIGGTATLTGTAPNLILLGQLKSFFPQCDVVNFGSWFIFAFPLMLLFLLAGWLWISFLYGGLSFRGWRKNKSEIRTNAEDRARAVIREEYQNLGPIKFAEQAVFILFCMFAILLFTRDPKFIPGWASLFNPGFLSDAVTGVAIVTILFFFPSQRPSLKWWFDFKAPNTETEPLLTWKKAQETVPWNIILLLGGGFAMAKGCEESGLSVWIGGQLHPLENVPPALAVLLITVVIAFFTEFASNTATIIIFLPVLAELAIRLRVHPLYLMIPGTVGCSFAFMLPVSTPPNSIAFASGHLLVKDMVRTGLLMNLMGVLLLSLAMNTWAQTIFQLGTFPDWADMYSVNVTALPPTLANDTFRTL
# [11] = Inhibition of mouse mINDY in HEK293 cells; assay type: cell-based
# ATP-citrate synthase [12] = molecular target: T4, ATP-citrate synthase (Rattus norvegicus, UniProt P16638); test: Binding affinity to rat ACLY assessed as inhibition constant measured after 20 mins
# T4 sequence (P16638 whole entry): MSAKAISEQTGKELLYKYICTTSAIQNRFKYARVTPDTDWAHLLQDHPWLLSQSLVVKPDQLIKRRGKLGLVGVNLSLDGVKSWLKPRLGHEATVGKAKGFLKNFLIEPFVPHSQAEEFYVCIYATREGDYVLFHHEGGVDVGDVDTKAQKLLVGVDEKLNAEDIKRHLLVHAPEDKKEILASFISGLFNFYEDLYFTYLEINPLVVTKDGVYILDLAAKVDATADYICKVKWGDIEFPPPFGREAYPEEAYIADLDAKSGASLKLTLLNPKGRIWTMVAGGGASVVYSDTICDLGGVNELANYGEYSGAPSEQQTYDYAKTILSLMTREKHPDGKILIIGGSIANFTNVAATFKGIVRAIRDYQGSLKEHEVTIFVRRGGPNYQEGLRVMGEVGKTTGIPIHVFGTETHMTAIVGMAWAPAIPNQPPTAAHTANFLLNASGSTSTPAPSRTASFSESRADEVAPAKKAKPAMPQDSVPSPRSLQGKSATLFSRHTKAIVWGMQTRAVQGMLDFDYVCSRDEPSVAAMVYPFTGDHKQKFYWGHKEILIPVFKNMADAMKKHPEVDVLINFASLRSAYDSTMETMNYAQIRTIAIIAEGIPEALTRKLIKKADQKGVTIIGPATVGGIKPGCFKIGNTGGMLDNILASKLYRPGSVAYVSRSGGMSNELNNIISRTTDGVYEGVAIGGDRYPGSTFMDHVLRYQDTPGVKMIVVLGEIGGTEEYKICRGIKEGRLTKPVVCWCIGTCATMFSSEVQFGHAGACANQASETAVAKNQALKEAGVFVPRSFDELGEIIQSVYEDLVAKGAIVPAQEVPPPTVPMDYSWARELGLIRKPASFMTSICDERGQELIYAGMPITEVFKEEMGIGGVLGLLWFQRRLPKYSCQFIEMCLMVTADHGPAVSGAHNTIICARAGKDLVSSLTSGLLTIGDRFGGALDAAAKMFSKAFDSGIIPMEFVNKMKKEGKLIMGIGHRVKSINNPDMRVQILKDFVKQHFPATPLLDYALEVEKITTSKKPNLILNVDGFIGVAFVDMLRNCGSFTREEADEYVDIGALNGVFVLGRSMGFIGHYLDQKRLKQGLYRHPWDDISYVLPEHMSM
# Sequence of Na(+)/citrate cotransporter (Q86YT5 whole entry): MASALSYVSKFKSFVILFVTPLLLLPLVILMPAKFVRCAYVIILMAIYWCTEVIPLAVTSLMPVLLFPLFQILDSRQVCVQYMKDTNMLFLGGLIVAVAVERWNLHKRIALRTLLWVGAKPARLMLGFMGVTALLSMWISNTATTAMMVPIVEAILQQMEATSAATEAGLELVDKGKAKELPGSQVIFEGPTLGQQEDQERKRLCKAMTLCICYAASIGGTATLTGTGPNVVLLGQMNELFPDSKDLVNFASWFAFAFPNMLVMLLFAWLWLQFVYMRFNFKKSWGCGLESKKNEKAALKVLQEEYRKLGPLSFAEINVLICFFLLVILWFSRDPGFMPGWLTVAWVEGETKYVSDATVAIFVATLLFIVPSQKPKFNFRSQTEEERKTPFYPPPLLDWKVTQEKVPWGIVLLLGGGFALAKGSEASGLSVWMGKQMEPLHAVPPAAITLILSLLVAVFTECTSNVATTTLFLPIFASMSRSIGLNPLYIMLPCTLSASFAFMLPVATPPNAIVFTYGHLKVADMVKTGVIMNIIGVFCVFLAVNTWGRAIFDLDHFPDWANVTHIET
structure (smiles),measurement,setting,value
O=C(O)c1ccc(Cl)c(S(=O)(=O)Nc2cccc([N+](=O)[O-])c2)c1,inhibition,[1],84.7%
same,inhibition,[2],84.7%
same,Ki,[3],48 µM
O=C(O)CC(O)(CCCCCCCCc1ccc(Cl)cc1Cl)C(=O)O (stereo unspecified),Ki,ATP-citrate synthase [4],1.2 µM
O=C(O)CC(CSCCCCCCc1ccc(Cl)cc1Cl)C(=O)O (stereo unspecified),Ki,ATP-citrate synthase [4],1.2 µM
COC(=O)c1cc(Cl)c(O)c(S(=O)(=O)Nc2cc(-c3ccccc3)c(F)cc2F)c1,Ki,ATP-citrate synthase [4],0.007 µM
same,Kd,ATP-citrate synthase [5],0.0022 µM
same,IC50,ATP-citrate synthase [6],0.0021 µM
same,half-life,in vitro,0.056 h
[2H]C([2H])(CCCCC(C)(C)C(=O)O)C([2H])(O)C([2H])([2H])CCCCC(C)(C)C(=O)O,half-life,[7],> 2.42 h
[2H]C(O)(CCCCCC(C)(C)C(=O)O)CCCCCC(C)(C)C(=O)O,half-life,[7],> 2.42 h
O=C(O)c1cccc(C(=O)O)c1C(=O)O,inhibition,[1],95%
CC(C)(CCCC/C=C/CCCCCC(C)(C)C(=O)O)C(=O)O,IC50,ATP-citrate synthase [8],5.31 µM
C[C@@H]1C[C@H]2O[C@@H]2/C=C\C=C\C(=O)Cc2c(Cl)c(O)cc(O)c2C(=O)O1 [RADICICOL],Ki,ATP-citrate synthase [4],13 µM
[2H]C([2H])(CCCCC(C)(C)C(=O)O)C(O)C([2H])([2H])CCCCC(C)(C)C(=O)O,half-life,[7],> 2.42 h
O=c1c(O)c(-c2ccc(O)cc2)oc2c(O)c(O)cc(O)c12 [HERBACETIN],IC50,HeLa,0.5 µM
O=C1NCc2ccccc2-c2cc(c(F)cc2F)NS(=O)(=O)c2cc1cc(Cl)c2O,half-life,in vitro,8.85 h
[2H]C(O)(CCCCCC(C(=O)O)(C([2H])([2H])[2H])C([2H])([2H])[2H])CCCCCC(C(=O)O)(C([2H])([2H])[2H])C([2H])([2H])[2H],half-life,[7],> 2.42 h
Cc1nc(OC(F)F)ccc1C(C)N1CCc2c(C#N)c(Cl)nc(NCC#N)c2C1 (stereo unspecified),IC50,[9],< 0.05 µM
same,IC50,[10],< 0.05 µM
O=C(Nc1cc(Cl)cc(C(F)(F)F)c1)OCCC(F)(F)F,IC50,[10],0.16 µM
same,IC50,[11],0.18 µM
O=C(O)C[C@](O)(C[C@H](O)CCCCCCc1ccc(Cl)cc1Cl)C(=O)O,Ki,ATP-citrate synthase [4],1 µM
O=C(O)C[C@@]1(O)C[C@@H](Cc2ccc(Cl)cc2Cl)OC1=O,Ki,ATP-citrate synthase [12],1 µM
O=C(O)CC(O)(CC(=O)CCCCCCc1ccc(Cl)cc1Cl)C(=O)O (stereo unspecified),Ki,ATP-citrate synthase [4],1.2 µM
O=C(O)CC(O)(CSCCCCCCc1ccc(Cl)cc1Cl)C(=O)O (stereo unspecified),Ki,ATP-citrate synthase [4],1.2 µM
